# Reference: patent US8916686B2, “TDF-related compounds and analogs thereof” (Thrasos Innovation, Inc., priority 2004, dated 2014)
# Key:
# [1] = test system: mouse model of nephrotoxic serum nephritis; test: Nephrotoxic serum nephritis (NTN) model of chronic renal injury; format: in vivo; conditions: oral 5 mg/kg/24 hr
# Experimental: Attenuation of renal fibrosis progression by Thrasos compound in a mouse model of nephrotoxic serum nephritis. FIG. 8A: Kidney section of vehicle-treated animal, FIG. 8B: Kidney section of animal received oral administration of compound SEQ ID NO 45 (5 mg/kg/24 hr).
# Nephrotoxic serum nephritis (NTN) is a model of progressive chronic renal injury. Mice given injections of nephrotoxic serum (NTS) develop glomerulonephritis, leading to tubulointerstitial disease associated with EMT, and ultimately renal fibrosis, over a period of about six weeks. […] In these studies, BMP-7 was able to restore expression of E-cadherin proteins in previously damaged tubules. […] For a review of the above see, Zeisberg et al., Nature Medicine, 9; 7 pp 964-968, (2003) and Kalluri et al., J. Clin Investigation 112:1776-1784 (2003).
# [2] = test system: HK-2 (Human Kidney-2) cells; test: HK-2 cell culture, TNF-alpha induced cytokine production (IL-6 ELISA); format: cell-based
# Experimental: The immortalized PTEC-derived HK-2 (Human Kidney-2) cells (ATCC number CRL-2190) were grown in serum-free keratinocyte medium (GIBCO number 17005-042) supplemented with epidermal growth factor (EGF: 5 ng/mL) and bovine pituitary extract (40 ug/mL) for 48 hours as described previously (Ryan et al (1994) Kidney International 45:48-57). Cells were transferred to 24-well plates at a density of 3×10^5 cells per well. After 24 hours, cells were incubated with fresh medium containing TNF-alpha (5 ng/mL) for 20 hours. Controls received medium alone. Then cells were washed twice with fresh culture medium and further incubated with culture medium alone (medium control, and TNF control wells) or TDF-1 at three different concentrations (40, 200 or 1000 ng/mL) or TDFRP compounds at three different concentrations (4, 20 or 100 uM) for sixty hours. During incubation, cells were kept in a 5% CO2 humid atmosphere at 37° C. At the end of the incubation, the media were removed and stored frozen until assayed. The concentrations of IL-6, IL-8 and sICAM-1 in culture supernatants were measured by specific ELISA (FIG. 10). […]
# An 8 point standard curve is prepared using 2-fold serial dilutions in reagent diluent. […] The optical density of each well is determined immediately using a microplate reader (Dynex Revelation 4.22) set to 450 nm and a wavelength correction at 550 nm […]
sequence,measurement,setting,value
CYFDDSSNVLCKKYRS [SEQ ID NO 45],renal fibrosis,[1],significantly attenuated progression of renal fibrosis
same,TNF-alpha induced inflammatory response (increase in IL-6) in proximal tubule cells,[2],can alleviate this inflammatory response
